Patent US5789434A, “Derivatives of substituted 4-biarylbutyric acid as matrix metalloprotease inhibitors” (priority 1995, dated 1998)

Legend:
Assay type in all cases: biochemical
MMP-3 [1] = target: T1, MMP-3 (Homo sapiens, UniProt P08254); experiment: Primary Thiopeptilide MMP-3 Inhibition Assay; settings: for IC50: pH 6.5, 13 nM stromelysin, x (n) = average of n determinations, read-out: MMP-3 Thiopep. IC50
T1 construct: Truncated Prostromelysin-257 was expressed in a soluble form in E.coli; made in house; host or cells: E. coli
Procedure: Enzyme: recombinant stromelysin expressed in E.coli and purified as described above. […] The protocols for the assay of compounds as stromelysin inhibitors was the same as that used for MMP-9 except that the assay buffer was 50 mM MES, pH 6.5 containing 150 mM NaCl, 10 mM CaCl2, 0.005% Brij, and 1% DMSO.

MMP-2 = target: T2, MMP-2 (Homo sapiens, UniProt P08253); experiment: Automated MMP Profiling Assay, MMP-2 fluorogenic; settings: for IC50: 96-well automated, P218, read-out: MMP-2 Fluorogenic IC50 (profiling)
T2 sequence (P08253 110-660): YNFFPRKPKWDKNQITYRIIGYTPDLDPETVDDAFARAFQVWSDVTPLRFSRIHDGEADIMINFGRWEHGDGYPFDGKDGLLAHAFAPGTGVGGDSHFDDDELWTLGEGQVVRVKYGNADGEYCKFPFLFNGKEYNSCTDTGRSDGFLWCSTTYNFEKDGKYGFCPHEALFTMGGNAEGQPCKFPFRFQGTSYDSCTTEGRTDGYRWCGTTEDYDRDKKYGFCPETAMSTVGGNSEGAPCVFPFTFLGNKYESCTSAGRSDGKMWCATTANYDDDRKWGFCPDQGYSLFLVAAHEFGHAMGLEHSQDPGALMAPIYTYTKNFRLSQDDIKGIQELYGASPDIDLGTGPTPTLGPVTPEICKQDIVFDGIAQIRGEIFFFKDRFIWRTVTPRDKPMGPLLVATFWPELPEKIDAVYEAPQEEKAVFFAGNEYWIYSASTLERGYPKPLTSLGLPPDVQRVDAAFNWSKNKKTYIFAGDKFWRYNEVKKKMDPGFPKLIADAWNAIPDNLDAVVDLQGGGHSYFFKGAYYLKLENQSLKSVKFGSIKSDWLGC

MMP-9 [2] = target: T3, MMP-9 (Homo sapiens, UniProt P14780); experiment: Automated MMP Profiling Assay, MMP-9 fluorogenic; settings: for IC50: 96-well automated, P218
T3 construct: from tissue; host or cells: human polymorphonuclear leukocytes (PMN) from whole blood (New York Blood Center), PMA-stimulated supernatant

MMP-9 [3] = target: T3, MMP-9; experiment: Thiopeptilide MMP-9 Inhibition Assay; settings: for inhibition at 5 µM: read-out: MMP-9: Thiopep. % inhibition
MMP-3 [4] = target: T1, MMP-3; experiment: Automated MMP Profiling Assay, MMP-3 fluorogenic; settings: for IC50: 96-well automated, P218
Description: This assay with each invention compound was run with the three enzymes MMP-3, MMP-9 and MMP-2 in parallel as adapted for a 96-well microtitre plate using a Hamilton A® workstation.

MMP-3 [5] = target: T1, MMP-3; experiment: Secondary P218 Quenched fluorescence Assay for MMP-3 Inhibition; settings: P218 substrate, pH 6.5, 25° C.; x (n) = average of n determinations; read-out: MMP-3 Fluorogenic IC50
Procedure: Truncated Prostromelysin-257 was expressed in a soluble form in E.coli as described by Marcy et al., Biochemistry, 30, 6476-6483, 1991. Soluble truncated prostromelysin was purified by a modification of the monoclonal antibody affinity chromatography method described by Housley et al., J. Biol. Chem., 268, 4481-87, 1993.
The assay is run continuously in a 3.0 ml cuvette using a Perkin-Elmer LS 50 B Spectrofluorimeter at 25° C. in a final volume of 2.0 mls. P218 substrate (10 mM) in 100% DMSO is diluted to a final concentration of 2.0 micromolar (μM) into assay buffer: 50 mM MES, pH 6.5 containing 150 mM NaCl, 10 mM CaCl2, 0.005% Brij-35, and 1%(v/v) DMSO. Test compounds(10 mM) in DMSO are diluted in assay buffer at an initial concentration of 10 to 100 micromolar. […] The reaction is initiated by the addition of recombinant stromelysin (MMP-3) at a final concentration of 1.0 nM. Upon peptide cleavage, the fluorescent MCA group was detected using an excitation wavelength of 328 nanometers and an emission wavelength of 393 nanometers.

T3 sequence (P14780 107-707 limits assumed): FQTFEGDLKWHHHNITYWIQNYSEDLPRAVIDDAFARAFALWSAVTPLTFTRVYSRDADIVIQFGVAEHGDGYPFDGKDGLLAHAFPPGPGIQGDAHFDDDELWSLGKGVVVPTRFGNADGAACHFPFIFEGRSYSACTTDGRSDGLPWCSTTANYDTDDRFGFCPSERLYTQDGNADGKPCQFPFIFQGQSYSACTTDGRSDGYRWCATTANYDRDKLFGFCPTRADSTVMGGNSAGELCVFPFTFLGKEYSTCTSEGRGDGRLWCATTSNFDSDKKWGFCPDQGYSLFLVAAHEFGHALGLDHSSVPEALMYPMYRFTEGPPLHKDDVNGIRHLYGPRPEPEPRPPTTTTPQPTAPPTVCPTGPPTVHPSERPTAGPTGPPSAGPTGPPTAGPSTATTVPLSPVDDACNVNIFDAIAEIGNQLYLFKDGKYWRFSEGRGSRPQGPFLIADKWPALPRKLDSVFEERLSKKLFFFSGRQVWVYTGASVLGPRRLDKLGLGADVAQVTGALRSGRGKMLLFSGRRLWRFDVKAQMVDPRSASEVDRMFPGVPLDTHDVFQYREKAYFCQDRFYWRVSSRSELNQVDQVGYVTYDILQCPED
T1 sequence (P08254 100-274 limits assumed): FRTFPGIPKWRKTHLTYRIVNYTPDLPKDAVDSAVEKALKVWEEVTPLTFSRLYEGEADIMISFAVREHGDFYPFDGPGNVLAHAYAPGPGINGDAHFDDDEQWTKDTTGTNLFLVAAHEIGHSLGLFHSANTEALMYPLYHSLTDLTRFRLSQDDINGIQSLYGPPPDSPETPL

SMILES | IC50 (MMP-2) [µM] | IC50 (MMP-9 [2]) [µM] | IC50 (MMP-3 [4]) [µM] | further results
CCCCCOc1ccc(-c2ccc(C(=O)CC(CCCc3ccccc3)C(=O)O)cc2)cc1 (stereo not shown) [Example 85, 4-[4-(4-pentyloxyphenyl)phenyl]-4-oxo-2-(3-phenylpropyl)butanoic acid] | 0.032 | 0.767 | 0.08 | IC50 (MMP-3 [1]): 0.037 µM; inhibition at 5 µM (MMP-9 [3]): 44%
O=C(C[C@@H](CCCc1ccccc1)C(=O)O)c1ccc(-c2ccc(Cl)cc2)cc1 [Example 115, 4-[4-(4-chlorophenyl)phenyl]-4-oxo-2R-(3-phenylpropyl)butanoic acid] | 1.75 | > 1.25 | > 1.25 | inhibition at 5 µM (MMP-3 [1]; at 5 μM, read-out: MMP-3 Thiopep. % inhibition): 39%; inhibition at 5 µM (MMP-9 [3]): 31%
O=C(CC(Cc1ccccc1)C(=O)O)c1ccc(-c2ccc(Cl)cc2)cc1 (stereo not drawn) [Example 131, [1,1'-Biphenyl]-4-butanoic acid, 4'-chloro-γ-oxo-α-(phenylmethyl)-] | – | – | – | IC50 (MMP-3 [1]): 0.31 µM; IC50 (MMP-3 [5]): 0.9 µM
O=C(O)[C@@H]1[C@@H](Sc2ccccc2)CC[C@H]1C(=O)c1ccc(-c2ccc(Cl)cc2)cc1 [Example 297, (1R,2S,5R)-trans-5-[4-(4-chlorophenyl)phenylcarbonyl]-trans-2-phenylthiocyclopentanecarboxylic acid] | 2.07 | 2.37 | 5.75 | IC50 (MMP-9 [3]; pH 6.5, x (n) = average of n determinations, read-out: MMP-9: Thiopep. IC50): 0.64 µM
COc1ccc2c(c1)C(=O)N(CCC(CC(=O)c1ccc(-c3ccc(Cl)cc3)cc1)C(=O)O)C2=O (stereo not drawn) [Example 422, 2H-Isoindole-2-butanoic acid, α-[2-(4'chloro[1,1'-biphenyl]-4-yl)-2-oxoethyl]-1,3-dihydro-5-methoxy-1,3-dioxo-] | 0.014 | 0.0016 | 0.0084 | –
COc1cccc2c1C(=O)N(CCC(CC(=O)c1ccc(-c3ccc(Cl)cc3)cc1)C(=O)O)C2=O (stereo not drawn) [Example 423, 2H-Isoindole-2-butanoic acid, α-[2-(4'chloro[1,1'-biphenyl]-4-yl)-2-oxoethyl]-1,3-dihydro-4-methoxy-1,3-dioxo-] | 0.015 | 0.0061 | 0.019 | –
CC(=O)Oc1ccc2c(c1)C(=O)N(CCC(CC(=O)c1ccc(-c3ccc(Cl)cc3)cc1)C(=O)O)C2=O (stereo not drawn) [Example 425, 2H-Isoindole-2-butanoic acid, 5-(acetyloxy)-α-[2-(4'-chloro[1,1'-biphenyl]-4-7l)2-oxoetyl]-1,3-dihydro-1,3-dioxo-] | 0.014 | 0.0012 | 0.0038 | –
O=C(CC(CCSc1ccccc1)C(=O)O)c1ccc(-c2ccc(Cl)cc2)cc1 (stereo not drawn) [Example 426, [1,1'-Biphenyl]-4-butanoic acid, 4'-chloro-γ-oxo-α-[2-(phenylthio)ethyl]-] | 0.035 | 0.417 | 0.161 | –
COc1ccc(CSCCC(CC(=O)c2ccc(-c3ccc(Cl)cc3)cc2)C(=O)O)cc1 (stereo not drawn) [Example 427, [1,1'-Biphenyl]-4-butanoic acid, 4'-chloro-α-[2-[[(4-methoxyphenyl)methyl]thio]ethyl]-γ-oxo-] | 0.042 | 0.362 | 0.189 | –
O=C(CC(CC[S+]([O-])c1ccccc1)C(=O)O)c1ccc(-c2ccc(Cl)cc2)cc1 (stereo not drawn) [Example 428, [1,1'-Biphenyl]-4-butanoic acid, 4'-chloro-γ-oxo-α-[2-(phenylsulfinyl)ethyl]-] | 0.016 | 0.119 | 0.053 | –
CCOc1ccc(-c2ccc(C(=O)CC(CCN3C(=O)c4cc5ccccc5cc4C3=O)C(=O)O)cc2)cc1 (stereo not drawn) [Example 429, 2H-Benz[.function.]isoindole-2-butanoic acid, α-[2-(4'-ethoxy[1,1'-biphenyl]-4-yl)-2-oxoethyl]-1,3-dihydro-1,3-dioxo-] | 0.023 | 0.0016 | 0.023 | –
CC(=O)NC(CC(=O)c1ccc(-c2ccc(Cl)cc2)cc1)C(=O)O (stereo not drawn) [Example 430, [1,1'-Biphenyl]-4-butanoic acid, α-(acetylamino)-4'-chloro-γ-oxo-] | 0.419 | – | – | inhibition at 5 µM (MMP-9 [2]): 37%; inhibition at 5 µM (MMP-3 [4]): 28%
O=C(CC(CCCCN1C(=O)c2ccccc2C1=O)C(=O)O)c1ccc(-c2ccc(Cl)cc2)cc1 (stereo not drawn) [Example 431, 2H-Isoindole-2-hexanoic acid, α[2-(4'-chloro[1,1'-biphenyl]-4-yl)-2-oxoethyl]-1,3-dihydro-1,3-dioxo-] | 0.016 | 0.05 | 0.038 | –
COC(=O)c1cccc(SCC(CC(=O)c2ccc(-c3ccc(Cl)cc3)cc2)C(=O)O)c1 (stereo not drawn) [Example 432, [1,1'-Biphenyl]-4-butanoic acid, 4'-chloro-α-[[[3-(methoxycarbonyl)phenyl]thio]methyl]-γ-oxo-] | 0.236 | > 1.25 | 1.6 | –
Cc1cccc(C)c1SCC(CC(=O)c1ccc(-c2ccc(Cl)cc2)cc1)C(=O)O (stereo not drawn) [Example 433, [1,1'-Biphenyl]-4-butanoic acid, 4'-chloro-α-[[(2,6-dimethylphenyl)thio]methyl]-γ-oxo-] | 0.0062 | 0.13 | 0.103 | –
COC(=O)c1cc(F)ccc1SCC(CC(=O)c1ccc(-c2ccc(Cl)cc2)cc1)C(=O)O (stereo not drawn) [Example 434, [1,1'-Biphenyl]-4-butanoic acid, 4'-chloro-α-[[[4-fluoro-2-(methoxycarbonyl)phenyl]thio]methyl]-γ-oxo-] | 0.061 | 1.14 | 0.254 | –
CCN(CC)C(=O)c1cccc(SCC(CC(=O)c2ccc(-c3ccc(Cl)cc3)cc2)C(=O)O)c1 (stereo not drawn) [Example 435, [1,1'-Biphenyl]-4-butanoic acid, 4'-chloro-α-[[[3-[(diethylamino)carbonyl]phenyl]thio]methyl]-γ-oxo-] | 0.0081 | 0.107 | 0.039 | –
CN(C)C(=O)c1ccccc1SCC(CC(=O)c1ccc(-c2ccc(Cl)cc2)cc1)C(=O)O (stereo not drawn) [Example 436, [1,1'-Biphenyl]-4-butanoic acid, 4'-chloro-α-[[[2-[(dimethylamino)carbony]phenyl]thio]methyl]-γ-oxo-] | 0.286 | 0.519 | 0.158 | –
CN(C)C(=O)c1cccc(SCC(CC(=O)c2ccc(-c3ccc(Cl)cc3)cc2)C(=O)O)c1 (stereo not drawn) [Example 437, [1,1'-Biphenyl]-4-butanoic acid, 4'-chloro-α-[[[3-[(dimethylamino)carbonyl]phenyl]thio]methyl]-γ-oxo-] | 0.015 | 0.366 | 0.05 | –
O=C(O)C1=CCCC1C(=O)c1ccc(-c2ccc(Cl)cc2)cc1 (stereo not shown) [Example 439, 1-Cyclopentene-1-carboxylic acid, 5-[(4'-chloro[1,1'-biphenyl]-4-yl)carbonyl]-] | – | – | – | inhibition at 5 µM (MMP-2; at 5 μM): 24%; inhibition at 5 µM (MMP-9 [2]): 3%; inhibition at 5 µM (MMP-3 [4]): 0%
CCCCCOc1ccc(-c2ccc(C(=O)C3CCC=C3C(=O)O)cc2)cc1 (stereo not shown) [Example 442, 1-Cyclopentene-1-carboxylic acid, 5-[[4'-(pentyloxy)[1,1'-biphenyl]-4-yl]carbonyl]-] | 0.962 | – | 2.76 | inhibition at 5 µM (MMP-9 [2]): 40%
CCCCCCOc1ccc(-c2ccc(C(=O)C3CCC=C3C(=O)O)cc2)cc1 (stereo not shown) [Example 443, 1-Cyclopentene-1-carboxylic acid, 5-[[4'-(hexyloxy)[1,1'-biphenyl]-4-yl]carbonyl]-] | 4.61 | – | – | inhibition at 5 µM (MMP-9 [2]): 16%; inhibition at 5 µM (MMP-3 [4]): 20%
O=C(CC(CSc1ccccc1)C(=O)O)c1ccc(-c2ccc(O)cc2)cc1 (stereo not drawn) [Example 444, [1,1'-Biphenyl]-4-butanoic acid, 4'-hydroxy-γ-oxo-α-[(phenylthio)methyl]-] | 0.043 | < 5 | < 5 | –
